Assay results as given in US11572402B2, “Method for promoting diversification of antibody variable region” (Chiome Bioscience Inc., priority 2017, dated 2023).
“Also recorded” adds a separate entry of the source.

Key:
[1] = tested on: BMAA4-2 cell line; experiment: Sequence change analysis using BMAA4-2 cell line according to flow cytometry (cIgM+_Sema3A− population); assay type: cell-based, chicken; conditions: BMAA4-2 cells, FCM at 1 week of culture, versus negative control CS(−)
Method: A frozen stock of the BMAA4-2 cell line (3.0×10^6 cells) was awaken with 10 mL of CS(−) medium, using a 25 cm^2 Flask (Corning, 430639), and the cells were then cultured in a CO2 incubator (SANYO CO2 Incubator MCO-20AIC, 39.5° C., 5% CO2). On the following day, 500 μL each of a CS(−) medium, to which each drug had been added, was added into each well of a 48-well dish (Nunc, 150687), and the cells were then seeded thereon to a cell density of 6.0×10^4 cells/mL (wherein the cell concentration and the survival rate were measured using CASY cell counter (Nepa Gene)). After individual samples had been cultured for 2 days, the samples were subcultured under the same conditions to result in a cell density of 1.0×10^4 cells/mL. […] Thereafter, a plot, in which the vertical axis indicated APC (AF647-labeled Sema3A) and the longitudinal axis indicated PE (Mouse Anti-Chicken IgM-PE), was developed, and the percentage of PE+ (cIgM+)_APC− (Sema3A−) cells was then calculated.
Using the BMAA4-2 cell line, a system for screening for a diversification-promoting compound was constructed (FIG. 1). […] Thus, the percentage of cIgM+_Sema3A− populations under individual culture conditions is measured and compared according to FCM, so that the effect of promoting changes in the amino acid sequences (i.e., the effect of promoting the diversification of the amino acid sequences) can be evaluated.

[2] = tested on: hVEGF-A-#33 cell line; experiment: Screening for diversification-promoting compounds by FCM (hIgG+_hVEGF-A− population); assay type: cell-based, chicken; conditions: hVEGF-A-#33 cells expressing human IgG, versus negative control CS(−)
Method: Frozen stocks of the hVEGF-A #33 cell line and the hVEGF-A #44 cell line (3.0×10^6 cells) were each awaken with a CS(-) medium, using a 25 cm^2 Flask (Corning, 430639), and were then cultured in a CO2 incubator (SANYO CO2 Incubator MCO-20AIC, 39.5° C., 5% CO2). On the following day, the cells were seeded on a 6-well dish (Nunc, 140675) to a cell density of 1.0×10^4 cells/mL (wherein the cell concentration and the survival rate were measured using CASY cell counter (Nepa Gene)). The cells were cultured in a CS(+) medium, in the presence or absence of a PI3Kα inhibitor ([…]: 10 μM, PI3Kα Inhibitor 2: 500 nM). Moreover, after the cells had been cultured for 2 days, individual samples were subcultured under the same conditions to result in a cell density of 1.0×10^4 cells/mL. Further, after completion of the culture for 3 days, individual samples were subcultured under the same conditions to result in a cell density of 6.0×10^4 cells/mL, and the culture was continued. After completion of the culture for 2 days (Day 7 of the culture), individual samples were centrifuged to remove a supernatant, and the residue was then suspended in a CS(+) medium supplemented with 1 μM FK-506 (hereinafter referred to as a “CS/FK medium”). The suspension was centrifuged again to remove a supernatant. This washing step was carried out repeatedly twice, and individual samples were then suspended in a CS/FK medium supplemented with AF647-labeled hVEGF-A (10 nM) and 2,000-fold diluted Goat Anti-Human IgG-PE. The light was shielded, and the obtained suspension was then reacted at 4° C. for 30 min. After completion of the staining, the reaction mixture was washed with a CS/FK medium twice, and each sample was then suspended in the CS/FK medium. Thereafter, using FACS Aria Fusion (BD), FCM and single cell sorting was carried out. Dead cells were removed using FSC-SSC plot. A plot, in which the vertical axis indicated AF647 (AF647-labeled hVEGF-A) and the longitudinal axis indicated PE (Goat Anti-Human IgG-PE), was developed, and the percentage of PE+(hIgG+)/AF647-(hVEGF-A-) cells was then calculated. In order to make a comparison regarding the number of cells with improved antigen-binding ability according to Affinity Maturation under individual conditions, Affinity Maturation Gate was established according to the following criteria. First, the plot was converted to a contour plot in FCM analysis, and a trapezoid gate having an inclination that was in parallel with the contour of a population in which the most cells were gathered (hereinafter referred to as a “main population”) was established. […] At that time, the vertex of the trapezoid gate was set to be overlapped with the mean value MFI of the main population, and then, a cell population having low antigen-binding ability and a cell population having a low expression level of antibody were set not to enter the gate. The percentage of clones with improved antigen-binding ability was calculated by counting the number of cells existing in this Affinity Maturation Gate and then dividing the obtained value by the total number of the analyzed cells. […]

Cc1nc(NC(=O)N2CCC[C@H]2C(N)=O)sc1-c1csc(C(C)(C)C)n1 [A66]
percentage of cIgM+_Sema3A− populations (sequence change-promoting action) [1]: highest sequence change-promoting action
percentage of hIgG+_hVEGF-A− cell population (diversification-promoting effect) [2]: increased in comparison to the negative control (CS(−)); also recorded: highest diversification-promoting effects
